Target: T1, CDK9/CyclinT1 (Homo sapiens, UniProt P50750)
T1 construct: Recombinant full-length His-tagged human CDK9 and CycT1; His-tag; purchased Life Technologies PV4131; host or cells: insect cells
Experiment: CDK9/CycT1 high ATP kinase assay (TR-FRET)
Assay type: biochemical
Details: 2 mM ATP (high ATP); median; read-out: CDK9/CyclinT1, 2 mM ATP (high ATP) IC50 - [mol/l] (median)
Procedure: 2.5 CDK9/CycT1 High ATP Kinase Assay
CDK9/CycT1 -inhibitory activity of compounds of the present invention at a high ATP concentration after preincubation of enzyme and test compounds was quantified employing the CDK9/CycT1 TR-FRET assay as described in the following paragraphs.
Recombinant full-length His-tagged human CDK9 and CycT1, expressed in insect cells and purified by Ni-NTA affinity chromatography, were purchased from Life Technologies (Cat. No PV4131). As substrate for the kinase reaction biotinylated peptide biotin-Ttds-YISPLKSPYKISEG (C-terminus in amide form) was used which can be purchased e.g. form the company JERINI peptide technologies (Berlin, Germany).
For the assay 50 nanoL of a 100 fold concentrated solution of the test compound in DMSO was pipetted into either a black low volume 384 well microtiter plate or a black 1536 well microtiter plate (both Greiner Bio-One, Frickenhausen, Germany), 2 microL of a solution of CDK9/CycT1 in aqueous assay buffer [50 millimol/L Tris/HCl pH 8.0, 10 millimol/L MgCl2, 1.0 millimol/L dithiothreitol, 0.1 millimol/L sodium ortho-vanadate, 0.01% (v/v) Nonidet-P40 (Sigma)] were added and the mixture was incubated for 15 min at 22° C. to allow pre-binding of the test compounds to the enzyme before the start of the kinase reaction. Then the kinase reaction was started by the addition of 3 microL of a solution of adenosine-tri-phosphate (ATP, 3.3 millimol/L=>final conc. in the 5 microL assay volume is 2 millimol/L) and substrate (1.25 micromol/L =>final conc. in the 5 microL assay volume is 0.75 micromol/L) in assay buffer and the resulting mixture was incubated for a reaction time of 25 min at 22° C. The concentration of CDK9/CycT1 was adjusted depending of the activity of the enzyme lot and was chosen appropriate to have the assay in the linear range, typical concentrations were in the range of 0.5 microg/mL. The reaction was stopped by the addition of 3 microL of a solution of TR-FRET detection reagents (0.33 micromol/L streptavidine-XL665 [Cisbio Bioassays, Codolet, France] and 1.67 nanomol/L anti-RB(pSer807/pSer811)-antibody from BD Pharmingen [#558389] and 2 nanomol/L LANCE EU-W1024 labeled anti-mouse IgG antibody [Perkin-Elmer, product no. AD0077]) in an aqueous EDTA-solution (167 millimol/L EDTA, 0.2% (w/v) bovine serum albumin in 100 millimol/L HEPES pH 7.5).
The resulting mixture was incubated 1 h at 22° C. to allow the formation of complex between the phosphorylated biotinylated peptide and the detection reagents. Subsequently the amount of phosphorylated substrate was evaluated by measurement of the resonance energy transfer from the Eu-chelate to the streptavidine-XL. Therefore, the fluorescence emissions at 620 nm and 665 nm after excitation at 350 nm was measured in a TR-FRET reader, e.g. a Pherastar (BMG Labtechnologies, Offenburg, Germany) or a Viewlux (Perkin-Elmer). The ratio of the emissions at 665 nm and at […] was taken as the measure for the amount of phosphorylated substrate. The data were normalised (enzyme reaction without inhibitor=0% inhibition, all other assay components but no enzyme=100% inhibition).

T1 sequence (P50750 whole entry): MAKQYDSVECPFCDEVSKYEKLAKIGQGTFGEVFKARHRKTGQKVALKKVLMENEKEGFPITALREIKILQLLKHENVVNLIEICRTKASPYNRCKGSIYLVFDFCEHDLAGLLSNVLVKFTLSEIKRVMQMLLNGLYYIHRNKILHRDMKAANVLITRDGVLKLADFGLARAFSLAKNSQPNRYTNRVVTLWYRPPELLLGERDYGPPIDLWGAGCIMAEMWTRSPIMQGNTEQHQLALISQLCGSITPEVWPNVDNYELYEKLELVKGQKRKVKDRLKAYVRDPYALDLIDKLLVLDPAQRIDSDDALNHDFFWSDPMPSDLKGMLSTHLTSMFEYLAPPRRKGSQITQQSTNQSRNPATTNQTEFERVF
T1 sequence (O60563 whole entry partner): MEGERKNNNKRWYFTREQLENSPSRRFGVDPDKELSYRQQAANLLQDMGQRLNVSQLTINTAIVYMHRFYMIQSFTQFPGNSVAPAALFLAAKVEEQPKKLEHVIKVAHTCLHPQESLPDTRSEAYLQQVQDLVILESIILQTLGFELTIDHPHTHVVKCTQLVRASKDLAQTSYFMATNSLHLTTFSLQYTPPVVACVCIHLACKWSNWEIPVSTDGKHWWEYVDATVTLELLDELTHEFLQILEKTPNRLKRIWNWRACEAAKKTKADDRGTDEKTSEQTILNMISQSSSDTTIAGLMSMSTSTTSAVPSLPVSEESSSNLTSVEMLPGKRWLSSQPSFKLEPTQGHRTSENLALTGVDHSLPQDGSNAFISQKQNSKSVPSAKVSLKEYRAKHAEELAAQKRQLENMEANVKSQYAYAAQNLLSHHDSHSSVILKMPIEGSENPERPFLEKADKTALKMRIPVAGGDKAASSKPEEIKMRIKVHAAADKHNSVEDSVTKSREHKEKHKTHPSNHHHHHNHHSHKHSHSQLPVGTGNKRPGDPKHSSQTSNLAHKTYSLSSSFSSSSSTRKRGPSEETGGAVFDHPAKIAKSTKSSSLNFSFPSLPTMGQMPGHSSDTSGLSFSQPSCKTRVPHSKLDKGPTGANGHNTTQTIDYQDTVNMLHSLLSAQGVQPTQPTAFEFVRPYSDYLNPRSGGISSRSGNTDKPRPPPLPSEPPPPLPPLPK

| Structure (SMILES) | IC50 [µM] |
| --- | --- |
| Cc1ccc2[nH]c(CNc3nn(C4CCN(C)CC4)c4nc(C5CC5)cnc34)nc2c1 [Example 6, 6-cyclopropyl-N-[(5-methyl-1H-benzimidazol-2-yl)methyl]-1-(1-methylpiperidin-4-yl)-1H-pyrazolo[3,4-b]pyrazin-3-amine] | ≥ 12.7 |
| CN1CCC(n2nc(NCc3nc4c(C(F)(F)F)cccc4[nH]3)c3ncc(C4CC4)nc32)CC1 [Example 7, 6-cyclopropyl-1-(1-methylpiperidin-4-yl)-N-{[4-(trifluoromethyl)-1H-benzimidazol-2-yl]methyl}-1H-pyrazolo[3,4-b]pyrazin-3-amine] | > 20 |
| Cc1cccc2[nH]c(CNc3nn(C4CCN(C)CC4)c4nc(C5CC5)cnc34)nc12 [Example 8, 6-cyclopropyl-N-[(4-methyl-1H-benzimidazol-2-yl)methyl]-1-(1-methylpiperidin-4-yl)-1H-pyrazolo[3,4-b]pyrazin-3-amine] | > 20 |
| CN1CCC(n2nc(NCc3nc4c(F)c(F)ccc4[nH]3)c3ncc(C4CC4)nc32)CC1 [Example 9, 6-cyclopropyl-N-[(4,5-difluoro-1H-benzimidazol-2-yl)methyl]-1-(1-methylpiperidin-4-yl)-1H-pyrazolo[3,4-b]pyrazin-3-amine] | > 20 |
| CC(C)(C)OC(=O)N1CCC(n2nc(NCc3nc4ccccc4[nH]3)c3ncc(C4CC4)nc32)CC1 [Example 11, tert-butyl 4-(3-{[(1H-benzimidazol-2-yl)methyl]amino}-6-cyclopropyl-1H-pyrazolo[3,4-b]pyrazin-1-yl)piperidine-1-carboxylate] | > 20 |
| c1ccc2[nH]c(CNc3nn(C4CCNCC4)c4nc(C5CC5)cnc34)nc2c1 [Example 12, N-[(1H-benzimidazol-2-yl)methyl]-6-cyclopropyl-1-(piperidin-4-yl)-1H-pyrazolo[3,4-b]pyrazin-3-amine] | > 20 |
| CN1CCC(n2nc(NCc3nc4cc(SC(F)(F)F)ccc4[nH]3)c3ncc(C4CC4)nc32)CC1 [Example 27, 6-cyclopropyl-1-(1-methylpiperidin-4-yl)-N-({5-[(trifluoromethyl)sulfanyl]-1H-benzimidazol-2-yl}methyl)-1H-pyrazolo[3,4-b]pyrazin-3-amine] | > 20 |
| FC1(F)CCC(n2nc(NCc3nc4ccccc4[nH]3)c3ncc(C4CC4)nc32)CC1 [Example 36, N-[(1H-benzimidazol-2-yl)methyl]-6-cyclopropyl-1-(4,4-difluorocyclohexyl)-1H-pyrazolo[3,4-b]pyrazin-3-amine] | > 20 |
| O[C@H]1CC[C@@H](n2nc(NCc3nc4ccccc4[nH]3)c3ncc(C4CC4)nc32)CC1 [Example 51, cis-4-(3-{[(1H-benzimidazol-2-yl)methyl]amino}-6-cyclopropyl-1H-pyrazolo[3,4-b]pyrazin-1-yl)cyclohexan-1-ol] | > 20 |
| CC1(C)CC(n2nc(NCc3nc4ccccc4[nH]3)c3ncc(C4CC4)nc32)CC(C)(C)O1 [Example 52, N-[(1H-benzimidazol-2-yl)methyl]-6-cyclopropyl-1-(2,2,6,6-tetramethyloxan-4-yl)-1H-pyrazolo[3,4-b]pyrazin-3-amine] | > 20 |
| c1ccc2[nH]c(CNc3nn(C4CC5(COC5)C4)c4nc(C5CC5)cnc34)nc2c1 [Example 54, N-[(1H-benzimidazol-2-yl)methyl]-6-cyclopropyl-1-(2-oxaspiro[3.3]heptan-6-yl)-1H-pyrazolo[3,4-b]pyrazin-3-amine] | > 20 |
| O[C@H]1CC[C@H](n2nc(NCc3nc4cc(F)ccc4[nH]3)c3ncc(C4CC4)nc32)CC1 [Example 56, trans-4-(6-cyclopropyl-3-{[(5-fluoro-1H-benzimidazol-2-yl)methyl]amino}-1H-pyrazolo[3,4-b]pyrazin-1-yl)cyclohexan-1-ol] | > 20 |

Continued, values first:

| IC50 [µM] | Structure (SMILES) |
| --- | --- |
| > 20 | c1ccc2[nH]c(CNc3nn(C4CCOC4)c4nc(C5CC5)cnc34)nc2c1 (racemic) [Example 10, (±)-N-[(1H-benzimidazol-2-yl)methyl]-6-cyclopropyl-1-[oxolan-3-yl]-1H-pyrazolo[3,4-b]pyrazin-3-amine] |
| > 20 | CC1COCCC1n1nc(NCc2nc3ccccc3[nH]2)c2ncc(C3CC3)nc21 (racemic) [Example 42, (±)-cis/trans-N-[(1H-benzimidazol-2-yl)methyl]-6-cyclopropyl-1-(3-methyloxan-4-yl)-1H-pyrazolo[3,4-b]pyrazin-3-amine] |
| > 20 | COCCC(C)n1nc(NCc2nc3ccccc3[nH]2)c2ncc(C3CC3)nc21 (racemic) [Example 57, (±)-N-[(1H-benzimidazol-2-yl)methyl]-6-cyclopropyl-1-(4-methoxybutan-2-yl)-1H-pyrazolo[3,4-b]pyrazin-3-amine] |
| > 20 | CC(CCN(C)C)n1nc(NCc2nc3ccccc3[nH]2)c2ncc(C3CC3)nc21 (racemic) [Example 62, (±)-N-[(1H-benzimidazol-2-yl)methyl]-6-cyclopropyl-1-[4-(dimethylamino)butan-2-yl]-1H-pyrazolo[3,4-b]pyrazin-3-amine] |
| > 20 | CC(CCN(C)C)n1nc(NCc2nc3ccccc3[nH]2)c2ncc(C3CC3)nc21 (single isomer, unassigned) [Example 63, (+) or (−)-N-[(1H-benzimidazol-2-yl)methyl]-6-cyclopropyl-1-[4-(dimethylamino)butan-2-yl]-1H-pyrazolo[3,4-b]pyrazin-3-amine] |
| > 20 | CC(CCN(C)C)n1nc(NCc2nc3ccccc3[nH]2)c2ncc(C3CC3)nc21 (single isomer, unassigned) [Example 64, (−) or(+)-N-[(1H-benzimidazol-2-yl)methyl]-6-cyclopropyl-1-[4-(dimethylamino)butan-2-yl]-1H-pyrazolo[3,4-b]pyrazin-3-amine] |
| > 20 | CN1CCC(n2nc(NCc3nc4ccccc4[nH]3)c3ncc(C4CC4)nc32)C1 (single isomer, unassigned) [Example 79, (−) or (+)-N-[(1H-benzimidazol-2-yl)methyl]-6-cyclopropyl-1-(1-methylpyrrolidin-3-yl)-1H-pyrazolo[3,4-b]pyrazin-3-amine] |
| > 20 | c1ccc2[nH]c(CNc3nn(C4CCC4)c4nc(C5CC5)cnc34)nc2c1 [Example 49, N-[(1H-benzimidazol-2-yl)methyl]-1-cyclobutyl-6-cyclopropyl-1H-pyrazolo[3,4-b]pyrazin-3-amine] |
| > 20 | c1ccc2[nH]c(CNc3nn(C4COC4)c4nc(C5CC5)cnc34)nc2c1 [Example 55, N-[(1H-benzimidazol-2-yl)methyl]-6-cyclopropyl-1-(oxetan-3-yl)-1H-pyrazolo[3,4-b]pyrazin-3-amine] |
| > 20 | OCCCn1nc(NCc2nc3ccccc3[nH]2)c2ncc(C3CC3)nc21 [Example 60, 3-(3-{[(1H-benzimidazol-2-yl)methyl]amino}-6-cyclopropyl-1H-pyrazolo[3,4-b]pyrazin-1-yl)propan-1-ol] |
| > 20 | COCCCn1nc(NCc2nc3ccccc3[nH]2)c2ncc(C3CC3)nc21 [Example 61, N-[(1H-benzimidazol-2-yl)methyl]-6-cyclopropyl-1-(3-methoxypropyl)-1H-pyrazolo[3,4-b]pyrazin-3-amine] |
| > 20 | COCCn1nc(NCc2nc3ccccc3[nH]2)c2ncc(C3CC3)nc21 [Example 65, N-[(1H-benzimidazol-2-yl)methyl]-6-cyclopropyl-1-(2-methoxyethyl)-1H-pyrazolo[3,4-b]pyrazin-3-amine] |
| > 20 | OCCn1nc(NCc2nc3ccccc3[nH]2)c2ncc(C3CC3)nc21 [Example 66, 2-(3-{[(1H-benzimidazol-2-yl)methyl]amino}-6-cyclopropyl-1H-pyrazolo[3,4-b]pyrazin-1-yl)ethan-1-ol] |
| > 20 | CN(C)CCn1nc(NCc2nc3ccccc3[nH]2)c2ncc(C3CC3)nc21 [Example 68, N-[(1H-benzimidazol-2-yl)methyl]-6-cyclopropyl-1-[2-(dimethylamino)ethyl]-1H-pyrazolo[3,4-b]pyrazin-3-amine] |

From patent US20230192700A1, “PYRAZOLOPYRAZINES ACTING ON CANCERS VIA INHIBITION OF CDK12” (Bayer Aktiengesellschaft, priority 2020, published 2023)
